Test results reported in patent publication US10316039B2, “P2X3 and/or P2X2/3 compounds and methods” (Asana Biosciences, LLC, priority 2013, dated 2019).

How the values were obtained:
P2X3 = target: T1, P2X3 (UniProt P56373); experiment: P2X3 FLIPR intracellular calcium assay; format: cell-based; conditions: agonist at EC75, species (human or rat) not given
T1 sequence (P56373 1-397): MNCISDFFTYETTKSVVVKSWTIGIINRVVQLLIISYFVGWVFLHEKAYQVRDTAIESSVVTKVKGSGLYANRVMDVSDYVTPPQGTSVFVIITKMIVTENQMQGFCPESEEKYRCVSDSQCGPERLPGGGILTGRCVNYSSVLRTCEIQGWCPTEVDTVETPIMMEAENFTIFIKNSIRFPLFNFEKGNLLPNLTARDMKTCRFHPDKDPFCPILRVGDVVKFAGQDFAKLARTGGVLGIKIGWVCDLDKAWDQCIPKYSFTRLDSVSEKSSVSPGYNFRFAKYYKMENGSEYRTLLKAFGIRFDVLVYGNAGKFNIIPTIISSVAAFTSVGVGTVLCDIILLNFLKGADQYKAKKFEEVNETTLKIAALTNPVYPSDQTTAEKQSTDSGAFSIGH
Procedure, shortened: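 Human P2X3-HEK, human P2X2/3-TRex293, rat P2X2/3-TRex293 or rat P2X3 TRex-CHO cells loaded with Calcium 4 dye (1.8 mM probenecid, pH 7.4).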

P2X2/3 = target: T2, P2X2/3 (Homo sapiens, UniProt P56373+Q9UBL9); experiment: P2X2/3 FLIPR intracellular calcium assay; format: cell-based; conditions: agonist at EC75, species (human or rat) not given
T2 sequence (Q9UBL9 1-471): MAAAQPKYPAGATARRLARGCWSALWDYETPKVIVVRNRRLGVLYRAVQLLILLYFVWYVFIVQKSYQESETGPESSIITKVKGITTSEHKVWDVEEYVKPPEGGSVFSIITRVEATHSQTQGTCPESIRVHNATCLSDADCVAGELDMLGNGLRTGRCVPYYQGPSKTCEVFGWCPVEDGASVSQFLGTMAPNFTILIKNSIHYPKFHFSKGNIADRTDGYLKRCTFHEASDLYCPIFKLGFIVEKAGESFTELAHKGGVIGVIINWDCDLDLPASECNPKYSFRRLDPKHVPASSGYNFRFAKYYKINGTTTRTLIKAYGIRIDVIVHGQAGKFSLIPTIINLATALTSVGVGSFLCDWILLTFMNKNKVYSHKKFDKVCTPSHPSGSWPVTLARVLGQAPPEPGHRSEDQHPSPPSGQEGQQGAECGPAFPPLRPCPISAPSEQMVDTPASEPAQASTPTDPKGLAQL
T2 sequence (P56373 1-397): T1 sequence (P56373 1-397)
Procedure, shortened: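 Stable human P2X2/3 TRex293 cells (doxycycline-induced) loaded with Calcium 4 dye; compounds, 11-point half-log series from 2 mM top stock, preincubated 15 min at RT in HBSS/HEPES pH 7.4 with 1.8 mM CaCl2. Agonist added at EC75; fluorescence change versus no-compound wells gave IC50.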

Row | Compound | IC50 (P2X3) [nM] | IC50 (P2X2/3) [nM]
1 | Cc1ccc(-c2cnc3c(N4CCC(F)CC4)cc(C(=O)N[C@@H](C)c4nnc[nH]4)cn23)s1 [Example 137] | 1 to 100 | 100 to 1000
2 | COC1CCN(c2cc(C(=O)N[C@@H](C)c3nnc[nH]3)cn3c(-c4ccc(C)s4)cnc23)C1 (stereo partly shown) [Example 138] | 1 to 100 | 100 to 1000
3 | COC1(C)CCN(c2cc(C(=O)N[C@@H](C)c3nnc[nH]3)cn3c(-c4ccc(C)s4)cnc23)CC1 [Example 139] | 1 to 100 | 100 to 1000
4 | COC1CCN(c2cc(C(=O)N[C@@H](C)c3nnc[nH]3)cn3c(-c4ccc(C)s4)cnc23)CC1 [Example 140] | 1 to 100 | 100 to 1000
5 | COC1CCCN(c2cc(C(=O)N[C@@H](C)c3nnc[nH]3)cn3c(-c4ccc(C)s4)cnc23)C1 (stereo partly shown) [Example 141] | 1 to 100 | 100 to 1000
6 | COC1(C)CCN(c2cc(C(=O)N[C@@H](C)c3nnc[nH]3)cn3c(-c4ccc(C)s4)cnc23)C1 (stereo partly shown) [Example 142] | 1 to 100 | 100 to 1000
7 | CC[C@H](NC(=O)c1cc(N2CCC(F)(F)CC2)c2ncc(-c3ccc(C)s3)n2c1)c1nnc[nH]1 [Example 144] | 100 to 1000 | 1 to 100
8 | Cc1ccc(-c2cnc3c(N4CCC(F)(F)CC4)cc(C(=O)N[C@H](c4nnc[nH]4)C(C)C)cn23)s1 [Example 145] | 1000 to 10000 | 100 to 1000
9 | CC[C@H](NC(=O)c1cc(N2CCC(OC)CC2)c2ncc(-c3ccc(C)s3)n2c1)c1nnc[nH]1 [Example 146] | 1 to 100 | 100 to 1000
10 | Cc1ccc(CNC(=O)c2cc(N3CCC(C)(C(N)=O)CC3)c3ncc(-c4ccc(C)s4)n3c2)cn1 [Example 148] | 1 to 100 | 1 to 100
11 | Cc1cccc(-c2cnc3c(N4CCC(C)CC4)cc(C(=O)N[C@@H](C)c4ncn[nH]4)cn23)c1 [Example 149] | 100 to 1000 | 1000 to 10000
12 | Cc1ccccc1-c1cnc2c(N3CCC(C)CC3)cc(C(=O)NCc3ccc(C)[n+]([O-])c3)cn12 [Example 150] | 1 to 100 | 100 to 1000
13 | Cc1ccc(CNC(=O)c2cc(-n3nnnc3C(C)C)c3ncc(-c4ccc(C)s4)n3c2)cn1 [Example 151] | 1 to 100 | 100 to 1000
14 | Cc1ccc(-c2cnc3c(-n4nnnc4C(C)C)cc(C(=O)NCc4ccc(C(F)(F)F)nc4)cn23)s1 [Example 152] | > 10000 | 100 to 1000
15 | CCc1nnnn1-c1cc(C(=O)NCc2ccc(C)nc2)cn2c(-c3ccc(C)s3)cnc12 [Example 153] | > 10000 | 1 to 100
16 | CCc1nnnn1-c1cc(C(=O)NCc2ccc(C3CC3)nc2)cn2c(-c3ccc(C)s3)cnc12 [Example 154] | 100 to 1000 | 100 to 1000
17 | Cc1ccc(CNC(=O)c2cc(-n3nnnc3C3CCC3)c3ncc(-c4ccc(C)s4)n3c2)cn1 [Example 155] | > 10000 | 1 to 100
18 | Cc1ccc(CNC(=O)c2cc(-n3nnnc3CC3CC3)c3ncc(-c4ccc(C)s4)n3c2)cn1 [Example 156] | > 10000 | 1 to 100
19 | Cc1ccc(CNC(=O)c2cc(-n3nnnc3C)c3ncc(-c4ccc(C)s4)n3c2)cn1 [Example 157] | 1 to 100 | 100 to 1000
20 | CCCc1nnnn1-c1cc(C(=O)NCc2ccc(C)nc2)cn2c(-c3ccc(C)s3)cnc12 [Example 158] | > 10000 | 1 to 100
21 | Cc1ccc(-c2cnc3c(-n4nnnc4C(C)C)cc(C(=O)NC(C)c4cnccn4)cn23)s1 (stereo not shown) [Example 159] | 100 to 1000 | 1000 to 10000
22 | Cc1ccc(-c2cnc3c(-n4nnnc4C4CCC4)cc(C(=O)NC(C)c4cnccn4)cn23)s1 (stereo not shown) [Example 160] | > 10000 | 100 to 1000
23 | Cc1ccc(-c2cnc3c(-n4nnnc4C4CCC4)cc(C(=O)NCc4ccn(C)c(=O)c4)cn23)s1 [Example 161] | > 10000 | 1 to 100
24 | CCc1nnnn1-c1cc(C(=O)NC(C)c2cnccn2)cn2c(-c3ccc(C)s3)cnc12 (stereo not shown) [Example 162] | 1 to 100 | 1000 to 10000

Row | Compound | IC50 (P2X3) [nM] | IC50 (P2X2/3) [nM]
25 | Cc1cnc(CNC(=O)c2cc(-n3nnnc3C3CCC3)c3ncc(-c4ccc(C)s4)n3c2)cn1 [Example 164] | > 10000 | 1 to 100
26 | Cc1ccc(-c2cnc3c(-n4nnnc4CC4CC4)cc(C(=O)N[C@@H](C)c4nnc[nH]4)cn23)s1 [Example 166] | 1 to 100 | 1 to 100
27 | Cc1ccc(-c2cnc3c(-n4nnnc4C(F)F)cc(C(=O)N[C@@H](C)c4nnc[nH]4)cn23)s1 [Example 168] | 1 to 100 | 1 to 100
28 | COc1ncc(CNC(=O)c2cc(-n3nnnc3C(F)F)c3ncc(-c4ccc(C)s4)n3c2)cn1 [Example 169] | 1 to 100 | 1 to 100
29 | C[C@H](NC(=O)c1cc(-n2nnnc2C(F)F)c2ncc(-c3ccc(Cl)s3)n2c1)c1nnc[nH]1 [Example 170] | 1 to 100 | 1 to 100
30 | CC[C@H](NC(=O)c1cc(-n2nnnc2C(F)F)c2ncc(-c3ccc(C)s3)n2c1)c1nnc[nH]1 [Example 171] | 1 to 100 | 1 to 100
31 | Cc1ncc(CNC(=O)c2cc(-n3nnnc3C(F)F)c3ncc(-c4ncc(C)s4)n3c2)cn1 [Example 172] | 1 to 100 | 1 to 100
32 | Cc1ccc(CNC(=O)c2cc(-n3nnnc3C(F)F)c3ncc(-c4ncc(C)s4)n3c2)cn1 [Example 173] | 100 to 1000 | 100 to 1000
33 | CC[C@H](NC(=O)c1cc(-n2nnnc2C(F)F)c2ncc(-c3ccc(Cl)s3)n2c1)c1nnc[nH]1 [Example 174] | 1 to 100 | 1 to 100
34 | C[C@H](NC(=O)c1cc(-n2nnnc2C2CC2)c2ncc(-c3ccc(Cl)s3)n2c1)c1nnc[nH]1 [Example 175] | 100 to 1000 | 1000 to 10000
35 | Cc1ncc(CNC(=O)c2cc(-n3nnnc3C(F)F)c3ncc(-c4ccc(Cl)s4)n3c2)cn1 [Example 176] | 100 to 1000 | 100 to 1000
36 | Cc1ncc(CNC(=O)c2cc(-n3nnnc3C(F)F)c3ncc(-c4ccc(C)s4)n3c2)cn1 [Example 177] | 1 to 100 | 1 to 100
37 | CCc1nnnn1-c1cc(C(=O)N[C@@H](C)c2nnc[nH]2)cn2c(-c3ccc(C)s3)cnc12 [Example 178] | 1 to 100 | 100 to 1000
38 | CCCc1nnnn1-c1cc(C(=O)N[C@@H](C)c2nnc[nH]2)cn2c(-c3ccc(C)s3)cnc12 [Example 179] | 1 to 100 | 1 to 100
39 | Cc1nnc([C@@H](C)NC(=O)c2cc(-n3nnnc3C(F)F)c3ncc(-c4ccc(C)s4)n3c2)o1 [Example 180] | 1 to 100 | 1 to 100
40 | Cc1ccc(-c2cnc3c(-n4nnnc4CC(F)(F)F)cc(C(=O)N[C@@H](C)c4nnc[nH]4)cn23)s1 [Example 181] | 1 to 100 | 1 to 100
41 | Cc1ccc(-c2cnc3c(-n4nnnc4C(C)(F)F)cc(C(=O)N[C@@H](C)c4nnc[nH]4)cn23)s1 [Example 182] | 1 to 100 | 1 to 100
42 | Cc1ncc(CNC(=O)c2cc(-n3nnnc3C(F)F)c3ncc(-c4ccc(C)o4)n3c2)cn1 [Example 183] | 100 to 1000 | 100 to 1000
43 | C[C@H](NC(=O)c1cc(-n2nnnc2C(C)(F)F)c2ncc(-c3ccc(Cl)s3)n2c1)c1nnc[nH]1 [Example 184] | 1 to 100 | 1 to 100
44 | Cc1cnc(CNC(=O)c2cc(-n3nnnc3C(F)F)c3ncc(-c4ncc(C)s4)n3c2)cn1 [Example 185] | 100 to 1000 | 1000 to 10000
45 | Cc1noc([C@@H](C)NC(=O)c2cc(-n3nnnc3C(C)(F)F)c3ncc(-c4ccc(C)s4)n3c2)n1 [Example 186] | > 10000 | 1 to 100
46 | CCC(=O)N(C)c1cc(C(=O)N[C@@H](C)c2nnc[nH]2)cn2c(-c3ccc(C)s3)cnc12 [Example 187] | 1 to 100 | 100 to 1000
47 | CCC(=O)N(c1cc(C(=O)N[C@@H](C)c2nnc[nH]2)cn2c(-c3ccc(C)s3)cnc12)C1CC1 [Example 188] | 1 to 100 | 100 to 1000
